Measured values: patent US20250360235A1, “RADI[…] AND METHOD FOR RADIOLABELLING” (Telix Innovations SA, priority 2024, published 2025)

Assay: Radiochemical purity by HPLC over time after radiolabelling
Assay type: physicochemical
Description: Table 1 to Table 5 show the results of various radiolabelling experiments on radiochemical purity and the chelation yield. The radiolabelling experiments in the tables are carried out as described in: • Example 1 for when the gallium-68 source is GE Liquid target generator and EZAG GalliaPharm generator; • Example 2 for when the gallium-68 source is IRE Galli Eo generator; • Example 3 for when the gallium-68 source is GE solid target generator;
However, the experiments were carried out with the amount of ascorbic acid as indicated in the Tables 1 to 5, and the activity as indicated in the Tables 1 to 5. Radiochemical purities were measured at various times (T0, T1, T4, T6) after the radiolabelled experiments have been conducted.
The kits of Example 1, Example 2 or Example 3, with amounts of ascorbic acid as set out in Table 7 were used in the experiments for the ascorbic acid bracketing matrix. Three strengths of [^68Ga]Ga-PSMA-11 will be tested, i.e. 50 mCi/ml, 7 mCi/ml and 1 mCi/ml. Radiochemical purity was determined at different time points (TO, T1, T4 or T6), as set out in Table 7.

O=C([O-])CN(CCN(CC(=O)[O-])Cc1cc(CCC(=O)NCCCCCC(=O)NCCCC[C@H](NC(=O)N[C@@H](CCC(=O)O)C(=O)O)C(=O)O)ccc1[O-])Cc1cc(CCC(=O)O)ccc1[O-].[68Ga+3].[OH3+] [[^68Ga]PSMA-11, gallium-68 radiolabelled Glu-urea-Lys-HBED-CC (gozetotide or PSMA-11)]
Radiochemical Purity (HPLC) Ga-68 PSMA-11 (%) (10 mg ascorbic acid, 514-520 mCi, 49.0-66.1 mCi/mL, GE Solid Target, n=3, T6 (6 h)): C (C = conforms to specifications) | Radiochemical Purity (HPLC) Ga-68 PSMA-11 (%) (15 mg ascorbic acid, 10.0-18.4 mCi, 0.95-1.77 mCi/mL, 1 × EZAG GalliaPharm, 2 × IRE Galli Eo, average of 3, T0): 100% | Radiochemical Purity (HPLC) Ga-68 PSMA-11 (%) (15 mg ascorbic acid, 10.0-18.4 mCi, 0.95-1.77 mCi/mL, 1 × EZAG GalliaPharm, 2 × IRE Galli Eo, average of 3, T1 (1 h)): 100% | Radiochemical Purity (HPLC) Ga-68 PSMA-11 (%) (15 mg ascorbic acid, 10.0-18.4 mCi, 0.95-1.77 mCi/mL, 1 × EZAG GalliaPharm, 2 × IRE Galli Eo, n=3, T0): C (C = conforms to specifications) | Radiochemical Purity (HPLC) Ga-68 PSMA-11 (%) (15 mg ascorbic acid, 10.0-18.4 mCi, 0.95-1.77 mCi/mL, 1 × EZAG GalliaPharm, 2 × IRE Galli Eo, n=3, T1 (1 h)): C (C = conforms to specifications) | Radiochemical Purity (HPLC) Ga-68 PSMA-11 (%) (15 mg ascorbic acid, 23.7-47.6 mCi, 2.26-4.53 mCi/mL, 1 × EZAG GalliaPharm, 2 × IRE Galli Eo, average of 3, T0): 100% | Radiochemical Purity (HPLC) Ga-68 PSMA-11 (%) (15 mg ascorbic acid, 23.7-47.6 mCi, 2.26-4.53 mCi/mL, 1 × EZAG GalliaPharm, 2 × IRE Galli Eo, average of 3, T4 (4 h)): 100% | Radiochemical Purity (HPLC) Ga-68 PSMA-11 (%) (15 mg ascorbic acid, 23.7-47.6 mCi, 2.26-4.53 mCi/mL, 1 × EZAG GalliaPharm, 2 × IRE Galli Eo, n=3, T0): C (C = conforms to specifications) | Radiochemical Purity (HPLC) Ga-68 PSMA-11 (%) (15 mg ascorbic acid, 23.7-47.6 mCi, 2.26-4.53 mCi/mL, 1 × EZAG GalliaPharm, 2 × IRE Galli Eo, n=3, T4 (4 h)): C (C = conforms to specifications) | Radiochemical Purity (HPLC) Ga-68 PSMA-11 (%) (20 mg ascorbic acid, 514-544 mCi, 48.3-51.9 mCi/mL, GE Solid Target, average of 2, T0): 100% | Radiochemical Purity (HPLC) Ga-68 PSMA-11 (%) (20 mg ascorbic acid, 514-544 mCi, 48.3-51.9 mCi/mL, GE Solid Target, average of 2, T6 (6 h)): 100% | Radiochemical Purity (HPLC) Ga-68 PSMA-11 (%) (20 mg ascorbic acid, 514-544 mCi, 48.3-51.9 mCi/mL, GE Solid Target, n=2, T0): C (C = conforms to specifications) | Radiochemical Purity (HPLC) Ga-68 PSMA-11 (%) (20 mg ascorbic acid, 514-544 mCi, 48.3-51.9 mCi/mL, GE Solid Target, n=2, T6 (6 h)): C (C = conforms to specifications) | Radiochemical Purity (HPLC) Ga-68 PSMA-11 (%) (25 mg ascorbic acid, 19.5-20.0 mCi, 1.85-1.90 mCi/mL, EZAG GalliaPharm, average of 2, T0): 100% | Radiochemical Purity (HPLC) Ga-68 PSMA-11 (%) (25 mg ascorbic acid, 19.5-20.0 mCi, 1.85-1.90 mCi/mL, EZAG GalliaPharm, average of 2, T1 (1 h)): 100% | Radiochemical Purity (HPLC) Ga-68 PSMA-11 (%) (25 mg ascorbic acid, 19.5-20.0 mCi, 1.85-1.90 mCi/mL, EZAG GalliaPharm, n=2, T0): C (C = all results conform to specifications) | Radiochemical Purity (HPLC) Ga-68 PSMA-11 (%) (25 mg ascorbic acid, 19.5-20.0 mCi, 1.85-1.90 mCi/mL, EZAG GalliaPharm, n=2, T1 (1 h)): C (C = all results conform to specifications) | Radiochemical Purity (HPLC) Ga-68 PSMA-11 (%) (25 mg ascorbic acid, 23.3-24 mCi, 2.22-2.28 mCi/mL, IRE Galli Eo, average of 2, T0): 100% | Radiochemical Purity (HPLC) Ga-68 PSMA-11 (%) (25 mg ascorbic acid, 23.3-24 mCi, 2.22-2.28 mCi/mL, IRE Galli Eo, average of 2, T4 (4 h)): 100% | Radiochemical Purity (HPLC) Ga-68 PSMA-11 (%) (25 mg ascorbic acid, 23.3-24 mCi, 2.22-2.28 mCi/mL, IRE Galli Eo, n=2, T0): C (C = all results conform to specifications) | Radiochemical Purity (HPLC) Ga-68 PSMA-11 (%) (25 mg ascorbic acid, 23.3-24 mCi, 2.22-2.28 mCi/mL, IRE Galli Eo, n=2, T4 (4 h)): C (C = all results conform to specifications) | Radiochemical Purity (HPLC) Ga-68 PSMA-11 (%) (25 mg ascorbic acid, 46.0-46.1 mCi, 4.38-4.39 mCi/mL, EZAG GalliaPharm, average of 2, T0): 100% | Radiochemical Purity (HPLC) Ga-68 PSMA-11 (%) (25 mg ascorbic acid, 46.0-46.1 mCi, 4.38-4.39 mCi/mL, EZAG GalliaPharm, average of 2, T4 (4 h)): 100% | Radiochemical Purity (HPLC) Ga-68 PSMA-11 (%) (25 mg ascorbic acid, 46.0-46.1 mCi, 4.38-4.39 mCi/mL, EZAG GalliaPharm, n=2, T0): C (C = all results conform to specifications) | Radiochemical Purity (HPLC) Ga-68 PSMA-11 (%) (25 mg ascorbic acid, 46.0-46.1 mCi, 4.38-4.39 mCi/mL, EZAG GalliaPharm, n=2, T4 (4 h)): C (C = all results conform to specifications) | Radiochemical Purity (HPLC) Ga-68 PSMA-11 (%) (bracketing ~1 mCi/mL, 18.75 mg ascorbic acid, 8.9-11.5 mCi, 0.85-1.09 mCi/mL, IRE Galli Eo, average of 2, T0): 100% | Radiochemical Purity (HPLC) Ga-68 PSMA-11 (%) (bracketing ~1 mCi/mL, 18.75 mg ascorbic acid, 8.9-11.5 mCi, 0.85-1.09 mCi/mL, IRE Galli Eo, average of 2, T1 (1 h)): 100% | Radiochemical Purity (HPLC) Ga-68 PSMA-11 (%) (bracketing ~1 mCi/mL, 25 mg ascorbic acid, 8.8-12.7 mCi, 0.84-1.21 mCi/mL, 2 × IRE Galli Eo, average of 2, T0): 99% | Radiochemical Purity (HPLC) Ga-68 PSMA-11 (%) (bracketing ~1 mCi/mL, 25 mg ascorbic acid, 8.8-12.7 mCi, 0.84-1.21 mCi/mL, 2 × IRE Galli Eo, average of 2, T1 (1 h)): 100% | Radiochemical Purity (HPLC) Ga-68 PSMA-11 (%) (bracketing ~1 mCi/mL, 31.25 mg ascorbic acid, 15.2-26.9 mCi, 1.44-2.54 mCi/mL, EZAG GalliaPharm, average of 2, T0): 100% | Radiochemical Purity (HPLC) Ga-68 PSMA-11 (%) (bracketing ~1 mCi/mL, 31.25 mg ascorbic acid, 15.2-26.9 mCi, 1.44-2.54 mCi/mL, EZAG GalliaPharm, average of 2, T1 (1 h)): 100% | Radiochemical Purity (HPLC) Ga-68 PSMA-11 (%) (bracketing ~7 mCi/mL, 18.75 mg ascorbic acid, 51.0-58.0 mCi, 5.55-6.5 mCi/mL, IRE Galli Eo, average of 2, T0): 100% | Radiochemical Purity (HPLC) Ga-68 PSMA-11 (%) (bracketing ~7 mCi/mL, 18.75 mg ascorbic acid, 51.0-58.0 mCi, 5.55-6.5 mCi/mL, IRE Galli Eo, average of 2, T4 (4 h)): 100% | Radiochemical Purity (HPLC) Ga-68 PSMA-11 (%) (bracketing ~7 mCi/mL, 25 mg ascorbic acid, 51.6-74.4 mCi, 4.56-6.92 mCi/mL, 3 × GE Liquid Target, 3 × IRE Galli Eo, 3 × EZAG GalliaPharm, average of 9, T0): 100%
